According to US20100298285A1, “Biclycloheteroaryl Compounds as P2x7 Modulators and Uses Thereof” (priority 2006, published 2010):

System: IL-1β release, THP-1 cells
Assay: IL-1β release assay in differentiated THP-1 cells stimulated with BzATP (Example 9)
Type: cell-based
Conditions: Homo sapiens; for inhibition at 0.3 µM: 0.3 μM compound ("+" symbols), differentiated THP-1 cells, 250 uM BzATP, read-out: IL-1β% Inhib. @ 0.3 or 0.1 μM; for IC50: THP-1 cells, BzATP 250 uM, four parameter logistic fit
Protocol: THP-1 cells (ATCC Cat # 285-IF-100) are plated in 96 well plates at a concentration of 200,000 cells per well and allowed to differentiate in RPMI-1640 media (ATCC Cat # 30-2001) containing 10% FBS, 100 IU/mL penicillin, 100 ug/mL streptomycin, 100 ng/mL LPS and 100 ng/mL IFN-γ for 16 hours. Following differentiation, the cells are treated for an additional 2 hours in RPMI-1640 media containing 100 IU/mL penicillin, 100 ug/mL streptomycin and fresh LPS at 100 ng/mL. The cells are then pretreated for 30 minutes with the compound of interest at the appropriate concentration in RPMI media containing 100 IU/mL penicillin, 100 ug/mL streptomycin. Following the pretreatment 2′,3′-O-(4-benzoylbenzoyl)-adenosine 5′-triphosphate (Sigma Aldrich Cat # B6396) is added to a final concentration of 250 uM and the cells are incubated for an additional 45 minutes. 30 uL of cell supernatant is then collected and IL-1β levels determined via ELISA (R&D systems Cat. # HSLB50) according to manufacturer's recommendations using the Tecan Safire plate reader. Background adjusted IL-1β levels of drug treated and non-treated cells are used to calculate the percent inhibition.
The following compounds have been or can be prepared according to the synthetic methods described above. For the purpose of Table 1 below, activity of each compound, which can be determined using the IL-1β assay method described in Example 9, is expressed as follows: […]
The compounds set forth in Table 1 were tested for activity in a cellular model as described herein. Specifically, cells were pretreated with differing amounts of the compound under test and released IL-1β determined as in Example 9, above. Measurements were made and IC50 values, presented in Table 2, below, were determined by fitting the data to a four parameter logistic equation using GraphPad Prism software (GraphPad Software, Inc). The equation may be expressed by the following formula:
Y=Bottom+(Top−Bottom)/(1+10̂((Log EC50−X)*HillSlope))
Where X is the logarithm of concentration, Y is the response and Y starts at Bottom and goes to Top with a sigmoid shape.

Row | IC50 [nM] | Structure (SMILES) | inhibition at 0.3 µM [%]
1 | > 1000 | N#CN1CCc2c(cccc2NC(=O)Cc2ccc(C(F)(F)F)c(F)c2)C1 [Compound 3053, N-(2-Cyano-1,2,3,4-tetrahydro-isoquinolin-5-yl)-2-(3-fluoro-4-trifluoromethyl-phenyl)-acetamide] | 0 to 25
2 | 684 | C[C@H](N)C(=O)N1CCc2c(cccc2NC(=O)Cc2ccc(C(F)(F)F)c(F)c2)C1 [Compound 3054] | 0 to 25
3 | 182 | O=C(Cc1ccc(C(F)(F)F)c(F)c1)Nc1cccc2c1CCN(C(=O)[C@@H]1CCCN1)C2 [Compound 3055] | 51 to 75
4 | 56.3 | N[C@@H](Cc1ccccc1)C(=O)N1CCc2c(cccc2NC(=O)Cc2ccc(C(F)(F)F)c(F)c2)C1 [Compound 3056, N-[2-((S)-2-Amino-3-phenyl-propionyl)-1,2,3,4-tetrahydro-isoquinolin-5-yl]-2-(3-fluoro-4-trifluoromethyl-phenyl)-acetamide] | ≥ 76
5 | 428 | O=C(Cc1ccc(C(F)(F)F)c(F)c1)Nc1cccc2c1CCN(CC(O)CCl)C2 (centres unmarked) [Compound 3057, N-[2-(3-Chloro-2-hydroxy-propyl)-1,2,3,4-tetrahydro-isoquinolin-5-yl]-2-(3-fluoro-4-trifluoromethyl-phenyl)-acetamide] | 26 to 50
6 | 338 | CCC(O)CN1CCc2c(cccc2NC(=O)Cc2ccc(C(F)(F)F)c(F)c2)C1 (centres unmarked) [Compound 3058, 2-(3-Fluoro-4-trifluoromethyl-phenyl)-N-[2-(2-hydroxy-butyl)-1,2,3,4-tetrahydro-isoquinolin-5-yl]-acetamide] | 26 to 50
7 | 256 | CC(c1ccc(F)cc1)N1CCc2c(cccc2NC(=O)Cc2ccc(C(F)(F)F)c(F)c2)C1 (centres unmarked) [Compound 3059, N-{2-[1-(4-Fluoro-phenyl)-ethyl]-1,2,3,4-tetrahydro-isoquinolin-5-yl}-2-(3-fluoro-4-trifluoromethyl-phenyl)-acetamide] | 51 to 75
8 | 64.4 | Cc1ccc2c(c1NC(=O)Cc1ccc(C(F)(F)F)cc1)CCN(C(=O)[C@H]1CCCN1)C2 [Compound 3060, N-[6-Methyl-2-((R)-pyrrolidine-2-carbonyl)-1,2,3,4-tetrahydro-isoquinolin-5-yl]-2-(4-trifluoromethyl-phenyl)-acetamide] | ≥ 76
9 | 35.1 | Cc1ccc2c(c1NC(=O)Cc1ccc(C(F)(F)F)c(F)c1)CCN(C(=O)[C@H]1CCCN1)C2 [Compound 3061, 2-(3-Fluoro-4-trifluoromethyl-phenyl)-N-[6-methyl-2-((R)-pyrrolidine-2-carbonyl)-1,2,3,4-tetrahydro-isoquinolin-5-yl]-acetamide] | ≥ 76
10 | 76.7 | Cc1ccc2c(c1NC(=O)Cc1cccc(C(F)(F)F)c1F)CCN(C(=O)[C@H]1CCCN1)C2 [Compound 3062] | ≥ 76
11 | 673 | CCCC(O)CN1CCc2c(cccc2NC(=O)Cc2ccc(C(F)(F)F)c(F)c2)C1 (centres unmarked) [Compound 3063] | 26 to 50
12 | > 1000 | O=C(Cc1ccc(C(F)(F)F)c(F)c1)Nc1cccc2c1CCN(CC(O)CF)C2 (centres unmarked) [Compound 3064] | 0 to 25
13 | 206 | O=C(Cc1ccc(C(F)(F)F)c(F)c1)Nc1cccc2c1CCN(CC(O)c1ccc(F)cc1)C2 (centres unmarked) [Compound 3065, N-{2-[2-(4-Fluoro-phenyl)-2-hydroxy-ethyl]-1,2,3,4-tetrahydro-isoquinolin-5-yl}-2-(3-fluoro-4-trifluoromethyl-phenyl)-acetamide] | 51 to 75
14 | 219 | O=C(Cc1ccc(C(F)(F)F)c(F)c1)Nc1cccc2c1CCN(CC(O)c1ccc(Cl)cc1)C2 (centres unmarked) [Compound 3066] | 51 to 75
15 | 150 | O=C(Cc1ccc(C(F)(F)F)c(F)c1)Nc1cccc2c1CCN(CC(O)C(O)(c1ccccc1)C(F)(F)F)C2 (centres unmarked) [Compound 3067] | ≥ 76
16 | – | O=C(Cc1ccc(C(F)(F)F)c(F)c1)Nc1c(Cl)ccc2c1CCN(C(=O)c1c(Cl)cccc1Cl)C2 [Compound 3068] | 0 to 25
17 | – | CC(=O)N1CCc2c(ccc(Cl)c2NC(=O)Cc2ccc(C(F)(F)F)c(F)c2)C1 [Compound 3069] | 0 to 25
18 | – | O=C(Cc1ccc(C(F)(F)F)c(F)c1)Nc1c(Cl)ccc2c1CCN(C(=O)c1ccc(Cl)cc1)C2 [Compound 3073] | 0 to 25
19 | – | Cc1cccc(C(=O)N2CCc3c(ccc(Cl)c3NC(=O)Cc3ccc(C(F)(F)F)c(F)c3)C2)c1 [Compound 3074] | 26 to 50
20 | – | O=C(Cc1ccc(C(F)(F)F)c(F)c1)Nc1c(Cl)ccc2c1CCN(C(=O)CCC1CCCC1)C2 [Compound 3075] | 0 to 25
21 | – | COc1ccc(C(=O)N2CCc3c(ccc(Cl)c3NC(=O)Cc3ccc(C(F)(F)F)c(F)c3)C2)cc1 [Compound 3076] | 0 to 25
22 | – | O=C(Cc1ccc(C(F)(F)F)c(F)c1)Nc1c(Cl)ccc2c1CCN(C(=O)c1ccc(-c3ccccc3)cc1)C2 [Compound 3077] | 0 to 25
23 | – | O=C(Cc1ccc(C(F)(F)F)c(F)c1)Nc1c(Cl)ccc2c1CCN(C(=O)c1cc(F)c(F)cc1F)C2 [Compound 3078] | 0 to 25

Row | IC50 [nM] | Structure (SMILES) | inhibition at 0.3 µM [%]
24 | – | O=C(Cc1ccc(C(F)(F)F)c(F)c1)Nc1c(Cl)ccc2c1CCN(C(=O)c1cccnc1)C2 [Compound 3079] | 0 to 25
25 | – | O=C(Cc1ccc(C(F)(F)F)c(F)c1)Nc1c(Cl)ccc2c1CCN(C(=O)C1CCCC1)C2 [Compound 3080] | 51 to 75
26 | – | COc1ccc(OC)c(CC(=O)N2CCc3c(ccc(Cl)c3NC(=O)Cc3ccc(C(F)(F)F)c(F)c3)C2)c1 [Compound 3081] | 0 to 25
27 | – | O=C(Cc1ccc(C(F)(F)F)c(F)c1)Nc1c(Cl)ccc2c1CCN(C(=O)Cc1ccc(F)cc1)C2 [Compound 3083] | 0 to 25
28 | – | CCCc1ccc(C(=O)N2CCc3c(ccc(Cl)c3NC(=O)Cc3ccc(C(F)(F)F)c(F)c3)C2)cc1 [Compound 3084] | 0 to 25
29 | – | O=C(Cc1ccc(C(F)(F)F)c(F)c1)Nc1c(Cl)ccc2c1CCN(C(=O)c1ccc(Cl)c(Cl)c1)C2 [Compound 3086] | 0 to 25
30 | – | COc1cc(OC)cc(C(=O)N2CCc3c(ccc(Cl)c3NC(=O)Cc3ccc(C(F)(F)F)c(F)c3)C2)c1 [Compound 3087] | 0 to 25
31 | – | CC(C)C(=O)N1CCc2c(ccc(Cl)c2NC(=O)Cc2ccc(C(F)(F)F)c(F)c2)C1 [Compound 3088] | 0 to 25
32 | – | O=C(Cc1ccc(C(F)(F)F)c(F)c1)Nc1c(Cl)ccc2c1CCN(C(=O)CCc1ccccc1)C2 [Compound 3089] | 0 to 25
33 | – | COc1cccc(C(=O)N2CCc3c(ccc(Cl)c3NC(=O)Cc3ccc(C(F)(F)F)c(F)c3)C2)c1 [Compound 3090] | 0 to 25
34 | – | O=C(Cc1ccc(C(F)(F)F)c(F)c1)Nc1c(Cl)ccc2c1CCN(C(=O)c1ccc(F)cc1)C2 [Compound 3091] | 0 to 25
35 | – | CC(C)(C)C(=O)N1CCc2c(ccc(Cl)c2NC(=O)Cc2ccc(C(F)(F)F)c(F)c2)C1 [Compound 3092] | ≥ 76
36 | – | O=C(Cc1ccc(C(F)(F)F)c(F)c1)Nc1c(Cl)ccc2c1CCN(C(=O)c1cccc(Cl)c1)C2 [Compound 3093] | 0 to 25
37 | – | CN(C)c1ccc(C(=O)N2CCc3c(ccc(Cl)c3NC(=O)Cc3ccc(C(F)(F)F)c(F)c3)C2)cc1 [Compound 3096] | 26 to 50
38 | – | O=C(Cc1ccc(C(F)(F)F)c(F)c1)Nc1c(Cl)ccc2c1CCN(C(=O)COCc1ccccc1)C2 [Compound 3097] | 0 to 25
39 | – | N#Cc1ccc(C(=O)N2CCc3c(ccc(Cl)c3NC(=O)Cc3ccc(C(F)(F)F)c(F)c3)C2)cc1 [Compound 3098] | 0 to 25
40 | – | O=C(Cc1ccc(C(F)(F)F)c(F)c1)Nc1c(Cl)ccc2c1CCN(C(=O)C1CC1c1ccccc1)C2 (centres unmarked) [Compound 3099] | 0 to 25
41 | – | O=C(Cc1ccc(C(F)(F)F)c(F)c1)Nc1c(Cl)ccc2c1CCN(C(=O)c1ccc(Cl)cc1Cl)C2 [Compound 3100] | 0 to 25
42 | – | O=C(Cc1ccc(C(F)(F)F)c(F)c1)Nc1c(Cl)ccc2c1CCN(C(=O)C1CCC1)C2 [Compound 3101] | 0 to 25
43 | – | O=C(Cc1ccc(C(F)(F)F)c(F)c1)Nc1c(Cl)ccc2c1CCN(C(=O)C1CC1)C2 [Compound 3102] | 0 to 25
44 | 172 | O=C(Cc1ccc(C(F)(F)F)c(F)c1)Nc1c(Cl)ccc2c1CCN(C(=O)CC1CCCC1)C2 [Compound 3103] | 51 to 75
45 | – | O=C(Cc1ccc(C(F)(F)F)c(F)c1)Nc1c(Cl)ccc2c1CCN(C(=O)COc1ccc(Cl)cc1)C2 [Compound 3104] | 0 to 25
46 | – | O=C(Cc1ccc(C(F)(F)F)c(F)c1)Nc1c(Cl)ccc2c1CCN(C(=O)Cc1ccc(Cl)cc1)C2 [Compound 3105] | 26 to 50
